Assay results from PMC3674138 (Clinical cancer research : an official journal of the …, 2013).
Like-named read-outs stand apart in the source and are kept apart here.

How the values were obtained:
[1] = system: basal cell carcinoma (BCC); details: oral 150 mg daily, cited from earlier work
[2] = Unbound vismodegib plasma concentration; assay type: in vivo, human; details: for unbound vismodegib concentrations: after daily dosing 150 mg, mean ± SD
clinical [3] = details: human, in vivo, 150 mg, AUC0–168
clinical [4] = details: human, in vivo, 150 mg, AUC0–24
[5] = Adverse events at least possibly related to vismodegib during daily dosing; assay type: in vivo, human
[6] = high permeability, low solubility; cited from earlier work
advanced solid tumors = experiment: Anticancer activity by RECIST 1.1 in advanced solid tumor patients; assay type: in vivo, human
[7] = cited from earlier work
[8] = all patients during daily dosing (both groups)
[9] = 46 patients evaluable for response, 150 mg daily

## CS(=O)(=O)c1ccc(C(=O)Nc2ccc(Cl)c(-c3ccccn3)c2)c(Cl)c1 [vismodegib]
[1]; locally advanced BCC
  response rate: 43%
[1]; metastatic BCC
  response rate: 30%
[2]; fasting group
  unbound vismodegib concentrations: 79 ± 53 ng/mL
[2]; fed group
  unbound vismodegib concentrations: 103 ± 49 ng/mL
[2]; daily dosing, fasting and fed groups
  Steady-state unbound drug concentrations as share of total concentrations: less than 1%
Clinical [3]
  AUC(0-t): 417 µg·h/mL
Clinical [4]
  AUC(0-t): 239 µg·h/mL
[5]; Fasting (n=31), 150 mg daily
  Alopecia, All grades (%): 4 (13) n (%)
  Anorexia, All grades (%): 9 (29) n (%)
  Diarrhea, All grades (%): 4 (13) n (%)
  Dizziness, All grades (%): 3 (10) n (%)
  Dysgeusia, All grades (%): 8 (26) n (%)
  Dyspnea, All grades (%): 3 (10) n (%)
  Fatigue, All grades (%): 11 (35) n (%)
  Fatigue, Grade 3 (%): 2 (6) n (%)
  Hyperglycemia, All grades (%): 2 (6) n (%)
  Hyperkalemia, All grades (%): 1 (3) n (%)
  Hypophosphatemia, All grades (%): 3 (10) n (%)
  Hypophosphatemia, Grade 3 (%): 1 (3) n (%)
  Myalgia, All grades (%): 6 (19) n (%)
  Nausea, All grades (%): 10 (32) n (%)
  Vomiting, All grades (%): 4 (13) n (%)
  Weight loss, All grades (%): 5 (16) n (%)
[5]; Fed (n=30), 150 mg daily
  Alopecia, All grades (%): 1 (3) n (%)
  Anorexia, All grades (%): 13 (43) n (%)
  Diarrhea, All grades (%): 3 (10) n (%)
  Dizziness, All grades (%): 2 (7) n (%)
  Dysgeusia, All grades (%): 13 (43) n (%)
  Fatigue, All grades (%): 11 (37) n (%)
  Fatigue, Grade 3 (%): 1 (3) n (%)
  Hyperglycemia, All grades (%): 1 (3) n (%)
  Hyperkalemia, All grades (%): 1 (3) n (%)
  Hyperkalemia, Grade 3 (%): 1 (3) n (%)
  Myalgia, All grades (%): 7 (23) n (%)
  Nausea, All grades (%): 9 (30) n (%)
  Neutropenia, All grades (%): 1 (3) n (%)
  Neutropenia, Grade 3 (%): 1 (3) n (%)
  Vomiting, All grades (%): 3 (10) n (%)
  Weight loss, All grades (%): 2 (7) n (%)
[5]; [8]
  anorexia, any grade, frequency: 36%
  dysgeusia, any grade, frequency: 34%
  fatigue, Grade 3, frequency: 5%
  fatigue, any grade, frequency: 36%
  hyperkalemia, Grade 3, frequency: 2%
  hypophosphatemia, Grade 3, frequency: 2%
  nausea, any grade, frequency: 31%
  neutropenia, Grade 3, frequency: 2%
[6]
  Biopharmaceutics Classification System class: 2
Advanced solid tumors; [9]
  objective responses (RECIST 1.1): no objective responses
  patients with stable disease: Nine
Advanced solid tumors; patients with stable disease, longest in a patient with BCC
  range of duration of stable disease: 8 to 152 weeks

## CS(=O)(=O)CCNCc1ccc(-c2ccc3ncnc(Nc4ccc(OCc5cccc(F)c5)c(Cl)c4)c3c2)o1 [lapatinib]
[7]
  increase in exposure (area-under-the-curve; AUC) with food: 150%
